This is an account of results in ChEMBL document CHEMBL4373702, “Intracellular Trapping of the Selective Phosphoglycerate Dehydrogenase (PHGDH) Inhibitor BI-4924 Disrupts Serine Biosynthesis” (J Med Chem, 2019).

Values after ≈ are worked out from the molar mass of the structure shown. Active and inactive are the calls of the source.

Data set [1] can be described thus: Drug uptake in human MDA-MB-468 cells assessed as BI-4924 levels at 3 uM measured up to 72 hrs relative to control. The note with it: mda-mb-468, 72 h. The data set is classed as ADME, cell-based.
A short description of data set [2]: Drug uptake in human MDA-MB-468 cells assessed as BI-4924 levels at 3 uM measured up to 72 hrs. As to conditions: mda-mb-468, 72 h, TDE = time-dependent effect. The data set is classed as ADME, cell-based.
Data set [3] is described as follows: Half life in 10% fetal calf serum. The data set is classed as ADME, cell-free, Bos taurus. As to conditions: cattle.
Data set [4] can be described thus: Half life in mouse serum. The data set is classed as ADME, cell-free.
For data set [5], the target named is T1, D-3-phosphoglycerate dehydrogenase (Homo sapiens, UniProt O43175).
T1 sequence (O43175 whole entry): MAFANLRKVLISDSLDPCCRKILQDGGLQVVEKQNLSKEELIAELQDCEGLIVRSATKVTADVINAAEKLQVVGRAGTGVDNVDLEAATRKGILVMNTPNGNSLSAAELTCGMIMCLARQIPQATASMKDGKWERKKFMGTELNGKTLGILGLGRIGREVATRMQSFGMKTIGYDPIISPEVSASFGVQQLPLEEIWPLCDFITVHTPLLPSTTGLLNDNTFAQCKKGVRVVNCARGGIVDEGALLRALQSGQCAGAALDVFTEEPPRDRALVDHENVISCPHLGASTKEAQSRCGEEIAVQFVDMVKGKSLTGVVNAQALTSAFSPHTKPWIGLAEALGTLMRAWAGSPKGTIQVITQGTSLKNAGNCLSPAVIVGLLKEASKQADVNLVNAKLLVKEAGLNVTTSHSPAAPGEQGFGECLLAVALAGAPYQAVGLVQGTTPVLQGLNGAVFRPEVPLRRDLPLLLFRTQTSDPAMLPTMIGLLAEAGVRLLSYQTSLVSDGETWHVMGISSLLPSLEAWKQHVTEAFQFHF
The data set can be described thus: Inhibition of PHGDH in human MDA-MB-468 cells assessed as reduction in [13C]-serine incubated for 1 hr using [13C]glucose as substrate by LC-MS/MS analysis. The data set is classed as cell-based.

Data set [6] concerns the target T1, D-3-phosphoglycerate dehydrogenase. The data set can be described thus: Inhibition of PHGDH in human MDA-MB-468 cells assessed as reduction in [13C]-serine incubated for 72 hrs using [13C]glucose as substrate by LC-MS/MS analysis. The data set is classed as cell-based.
Data set [7] deals with Alcohol dehydrogenase class-3 (Homo sapiens) (UniProt P11766). Description: Binding affinity to Alcohol dehydrogenase class-3 in human MDA-MB-468 cells at 10 uM incubated for 2 hrs in presence of 2-[4-[(1S)-1-[[6-(10-aminodecyl)-4,5-dichloro-1-methyl-indole-2-carbonyl]amino]-2-hydroxy-ethyl]phenyl]sulfonylacetic acid by quantitative chemical proteomics assay. The data set is classed as cell-based.

Data set [8] has as its target T2, 3-hydroxyisobutyrate dehydrogenase, mitochondrial (Homo sapiens) (UniProt P31937).
T2 sequence (whole entry): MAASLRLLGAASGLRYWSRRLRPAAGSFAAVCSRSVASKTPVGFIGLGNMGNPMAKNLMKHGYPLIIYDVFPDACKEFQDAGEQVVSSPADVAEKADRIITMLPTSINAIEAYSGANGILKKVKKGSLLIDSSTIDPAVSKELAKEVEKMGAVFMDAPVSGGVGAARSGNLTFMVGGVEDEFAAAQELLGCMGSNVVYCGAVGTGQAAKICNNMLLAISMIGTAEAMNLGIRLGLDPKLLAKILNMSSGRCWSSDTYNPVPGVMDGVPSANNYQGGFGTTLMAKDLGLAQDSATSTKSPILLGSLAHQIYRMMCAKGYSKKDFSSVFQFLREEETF
The data set can be described thus: Binding affinity to 3-hydroxyisobutyrate dehydrogenase in human MDA-MB-468 cells at 10 uM incubated for 2 hrs in presence of 2-[4-[(1S)-1-[[6-(10-aminodecyl)-4,5-dichloro-1-methyl-indole-2-carbonyl]amino]-2-hydroxy-ethyl]phenyl]sulfonylacetic acid by quantitative chemical proteomics assay. The data set is classed as cell-based.

Data set [9] is described as follows: Permeability from apical to basolateral side in human Caco2 cells. The data set is classed as ADME, cell-based. As to conditions: caco-2.
A short description of data set [10]: Solubility pH 4.5 buffer. The data set is classed as physicochemical.
A short description of data set [11]: Solubility pH 6.8 buffer. The data set is classed as physicochemical.
Data set [12] in a line: Stability in mouse liver microsomes relative to hepatic blood flow. The data set is classed as ADME, Microsome. The note with it: read-out: Stability. In general terms: Microsomes from liver hold many membrane-bound enzymes, among them those of drug oxidation.
The nature of data set [13]: Stability in rat liver microsomes relative to hepatic blood flow. The data set is classed as ADME, Microsome. The note with it: read-out: Stability.
Data set [14] in a line: Stability in human liver microsomes relative to hepatic blood flow. The data set is classed as ADME, Microsome. As to conditions: read-out: Stability.
The nature of data set [15]: Stability in mouse hepatocytes relative to hepatic blood flow. The data set is classed as ADME, cell-based, Hepatocyte. The note with it: read-out: Stability.
Data set [16] can be described thus: Permeability from basolateral to apical side in human Caco2 cells. The data set is classed as ADME, cell-based. As to conditions: caco-2. A general note: Caco-2 monolayers are a common model of the intestinal barrier.
Data set [17] can be described thus: Protein binding in 10% fetal calf serum. As to conditions: cattle, read-out: PB (converted). The data set is classed as ADME, cell-free, Bos taurus.
Data set [18] is described as follows: Efflux ratio of permeability from apical to basolateral side over basolateral to apical side in human Caco2 cells. The data set is classed as ADME, cell-based. As to conditions: caco-2.
The nature of data set [19]: Protein binding in mouse plasma. The data set is classed as ADME, cell-free. As to conditions: read-out: PPB (converted).
In data set [20] the target is Alcohol dehydrogenase class-3 (Homo sapiens) (UniProt P11766). Description: Binding affinity to Alcohol dehydrogenase class-3 in human MDA-MB-468 cells at 10 uM incubated for 2 hrs in presence of 12-amino-2-[4-[(1S)-1-[(4,5-dichloro-1,6-dimethyl-indole-2-carbonyl)amino]-2-hydroxy-ethyl]phenyl]sulfonyl-dodecanoic acid by quantitative chemical proteomics assay. The data set is classed as cell-based.

Data set [21] deals with T2, 3-hydroxyisobutyrate dehydrogenase, mitochondrial (Homo sapiens). Description: Binding affinity to 3-hydroxyisobutyrate dehydrogenase in human MDA-MB-468 cells at 10 uM incubated for 2 hrs in presence of 12-amino-2-[4-[(1S)-1-[(4,5-dichloro-1,6-dimethyl-indole-2-carbonyl)amino]-2-hydroxy-ethyl]phenyl]sulfonyl-dodecanoic acid by quantitative chemical proteomics assay. The data set is classed as cell-based.

Chain of Alcohol dehydrogenase class-3 (Homo sapiens) (P11766 2-374 limits assumed): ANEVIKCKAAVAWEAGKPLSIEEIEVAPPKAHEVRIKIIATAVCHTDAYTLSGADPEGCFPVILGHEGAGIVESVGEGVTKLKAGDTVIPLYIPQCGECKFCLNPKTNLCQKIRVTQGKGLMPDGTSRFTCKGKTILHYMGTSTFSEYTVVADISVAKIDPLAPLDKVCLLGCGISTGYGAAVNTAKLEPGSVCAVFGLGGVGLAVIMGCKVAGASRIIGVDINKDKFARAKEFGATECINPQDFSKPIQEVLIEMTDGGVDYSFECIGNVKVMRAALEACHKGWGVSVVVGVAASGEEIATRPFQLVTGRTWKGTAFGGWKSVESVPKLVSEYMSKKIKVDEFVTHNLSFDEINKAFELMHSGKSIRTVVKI

By half-life is commonly meant the time needed for the level to fall by half in the phase considered. The term IC50 denotes the concentration needed to halve the response being measured. `CCOC(=O)CS(=O)(=O)c1ccc([C@@H](CO)NC(=O)c2cc3c(Cl)c(Cl)c(C)cc3n2C)cc1`: in data set [1], the “fold change (FC)” value is “<= 140”. For the same molecule, in data set [2], the Drug uptake entry is recorded as “Tde”. Besides, the half-life in data set [3] was found to be 4.6 h; in data set [4], 2.25 h. Moreover, the half-maximal inhibitory concentration (IC50) in data set [5] was determined as 29 nM; in data set [6], 2000 nM.

By solubility is commonly meant how much of the substance goes into solution per volume. As to `Cc1cc2c(cc(C(=O)N[C@H](CO)c3ccc(S(=O)(=O)CC(=O)O)cc3)n2C)c(Cl)c1Cl`, the outcome in data set [7], in data set [8], in data set [20] and in [21] was Active. Also, the permeability in [9] and in data set [16] was 0.2 ×10⁻⁶ cm/s throughout. Also, the 50% inhibitory concentration (IC50) in data set [6] came out at 2200 nM. Further, the solubility in [10] turned out to be 64 mg/mL (≈ 128 mM); in data set [11] it was 59 mg/mL (≈ 118 mM). The hepatic extraction ratio in data set [12] was < 0.23; in data set [13], < 0.24; in [14], < 0.24; in [15], 0.38. In addition, the fraction unbound is 0.17 in [17] and 0.004 in [19]. Besides, in [18], the Ratio is on record as 11.
